Test results reported in patent US20220332700A1, “NOVEL APOPTOSIS SIGNAL-REGULATING KINASE 1 INHIBITORS” (MANKIND PHARMA LTD, priority 2019, published 2022).
Where two headings read alike, the source gives them in different places.

Tests used:
Human ASK1 = molecular target: T1, Human ASK1 (Homo sapiens, UniProt Q99683); assay: ASK1 Cell Based Assay (phospho p38 read out in hASK1 transfected HEK293T-AP1 cells)
T1 construct: expressed in transfected cells; host or cells: HEK293T-AP1
T1 sequence (Q99683 1-1374): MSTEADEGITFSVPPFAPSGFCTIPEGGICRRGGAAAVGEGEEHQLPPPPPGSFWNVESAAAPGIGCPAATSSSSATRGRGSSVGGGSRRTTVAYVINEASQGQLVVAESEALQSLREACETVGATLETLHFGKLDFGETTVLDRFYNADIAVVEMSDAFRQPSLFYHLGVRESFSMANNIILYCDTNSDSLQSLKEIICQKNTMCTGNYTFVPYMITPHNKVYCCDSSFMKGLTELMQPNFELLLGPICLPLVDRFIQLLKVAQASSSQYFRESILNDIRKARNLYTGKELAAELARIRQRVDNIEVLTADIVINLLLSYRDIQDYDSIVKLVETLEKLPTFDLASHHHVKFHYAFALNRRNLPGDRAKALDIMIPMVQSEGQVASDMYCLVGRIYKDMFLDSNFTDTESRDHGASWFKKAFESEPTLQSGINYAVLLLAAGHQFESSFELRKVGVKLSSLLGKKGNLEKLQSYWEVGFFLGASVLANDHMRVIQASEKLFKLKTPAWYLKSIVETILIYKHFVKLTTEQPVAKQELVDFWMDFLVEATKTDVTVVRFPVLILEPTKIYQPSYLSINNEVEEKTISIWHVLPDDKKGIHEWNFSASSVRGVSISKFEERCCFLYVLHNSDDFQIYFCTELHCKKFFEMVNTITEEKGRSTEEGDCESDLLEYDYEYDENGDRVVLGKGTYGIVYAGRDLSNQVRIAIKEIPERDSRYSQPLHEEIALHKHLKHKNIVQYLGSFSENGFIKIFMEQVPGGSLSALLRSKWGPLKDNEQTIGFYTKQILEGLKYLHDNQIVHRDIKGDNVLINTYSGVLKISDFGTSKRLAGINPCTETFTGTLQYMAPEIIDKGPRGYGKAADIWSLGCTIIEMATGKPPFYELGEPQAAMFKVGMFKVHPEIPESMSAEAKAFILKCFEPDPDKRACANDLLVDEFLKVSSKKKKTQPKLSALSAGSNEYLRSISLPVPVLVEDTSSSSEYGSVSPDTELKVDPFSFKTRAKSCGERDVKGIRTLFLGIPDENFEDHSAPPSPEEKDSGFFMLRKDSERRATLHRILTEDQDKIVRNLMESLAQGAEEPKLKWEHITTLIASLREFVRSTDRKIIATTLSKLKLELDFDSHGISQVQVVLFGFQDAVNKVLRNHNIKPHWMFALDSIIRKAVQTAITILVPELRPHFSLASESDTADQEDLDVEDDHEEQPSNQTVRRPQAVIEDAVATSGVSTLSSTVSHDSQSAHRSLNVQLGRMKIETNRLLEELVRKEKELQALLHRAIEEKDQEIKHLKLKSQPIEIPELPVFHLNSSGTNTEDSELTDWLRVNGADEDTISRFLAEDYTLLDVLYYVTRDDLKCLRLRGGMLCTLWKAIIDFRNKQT
Procedure, shortened: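 HEK293T-AP1 cells transfected with hASK1, after 24 h treated with compounds for 24 h (0.2% DMSO), then stimulated with 1 mM H2O2 for 1 h with compounds present.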

recombinant ASK1 = molecular target: T2, recombinant ASK1 (Homo sapiens, UniProt Q99683); assay: ASK1 Biochemical Assay (HTRF KinEASE-STK S3)
T2 construct: purchased Carna Biosciences
Procedure, shortened: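 Recombinant ASK1 (5 ng) preincubated with compound 1 h at 23 °C in MOPS pH 7 buffer with Mg-acetate, DTT, NP40, glycerol, BSA and 1% DMSO. Inhibition calculated against vehicle after substrate-blank subtraction.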

Male C57BL/6 mice = assay: Mouse model of Acetaminophen (APAP) induced Hepatotoxicity; format: in vivo; details: l0mpk and 30mpk; APAP 300 mg/kg i.p.; 6h post APAP; dose dependent, comparable with selonsertib
Protocol: Male C57BL/6 mice, 20 to 24 grams body weight at the time of study initiation, were acclimatized at least for 1-3 days prior to experiment initiation. Based on body weight, animal were randomized to different groups and kept for overnight fasting. Animals were treated with test compounds and vehicle for control group. After 30 minutes, APAP (300 mg/kg) was administered by intraperitoneal route (i.p). A vehicle control group was also included in the study as a vehicle control for test compound as well as APAP. All animals were bled 6h post APAP administration from the retro-orbital plexus into appropriately labeled tubes. Serum ALT levels were measured in all groups.

[1] = HEK293T-AP1 cells, 1 mM hydrogen peroxide, phospho p38, read-out: Cell Based Assay IC50
[2] = comparison with Selonsertib, read-out: ASK1 ph. P38 Cell based Assay (IC50)
[3] = ATP 100 μM, read-out: Biochemical Assay IC50
[4] = comparison with Selonsertib, read-out: ASK1 biochemical Assay (IC50)
[5] = selectivity table, read-out: ASK1 Biochemical Assay IC50

IC50 (Human ASK1; [1]) | IC50 (Human ASK1; [2]) | IC50 (recombinant ASK1; [3]) | IC50 (recombinant ASK1; [4]) | IC50 (recombinant ASK1; [5]) | SMILES | reduction in serum ALT levels compared to vehicle (Male C57BL/6 mice)
140 nM | 140 nM | < 100 nM | 4.1 nM | 4.1 nM | CC(C)n1cnnc1-c1cccc(N2CCN(c3ccc(N4CCOCC4)cc3)C2=O)n1 [Example 1043, 1-(6-(4-isopropyl-4H-1,2,4-triazol-3-yl)pyridin-2-yl)-3-(4-morpholinophenyl)imidazolidin-2-one] | significant reduction
< 100 nM | 102 nM | < 50 nM | 3.8 nM | 3.8 nM | CC(C)n1cnnc1-c1cccc(N2CCN(c3ccc(N4CCC(C(=O)N(C)C)CC4)cc3)C2=O)n1 [Example 1097, 1-(4-(3-(6-(4-isopropyl-4H-1,2,4-triazol-3-yl)pyridin-2-yl)-2-oxoimidazolidin-1-yl)phenyl)-N,N-dimethylpiperidine-4-carboxamide] | significant reduction
< 100 nM | 15 nM | < 50 nM | 1 nM | 1 nM | CNC(=O)C1CCN(c2ccc(N3CCN(c4cccc(-c5nncn5C(C)C)n4)C3=O)cc2)CC1 [Example 1082, 1-(4-(3-(6-(4-isopropyl-4H-1,2,4-triazol-3-yl)pyridin-2-yl)-2-oxoimidazolidin-1-yl)phenyl)-N-methylpiperidine-4-carboxamide] | significant reduction
< 100 nM | 69 nM | < 100 nM | 3.8 nM | 3.8 nM | CC(C)n1cnnc1-c1cccc(N2CCN(c3ccc(N4CC(C#N)C4)cc3)C2=O)n1 [Example 1071, 1-(4-(3-(6-(4-isopropyl-4H-1,2,4-triazol-3-yl)pyridin-2-yl)-2-oxoimidazolidin-1-yl)phenyl)azetidine-3-carbonitrile] | significant reduction
